# Test results published in PubChem BioAssay AID602272 (Broad Institute, 2012).
# Calls of active or inactive are those of the source.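 Rule for the calls: active = every repeat run shows inhibition with half-maximal dose at most twice the top dose tested; inconclusive = repeat runs disagree on the call; inactive = every repeat run inactive.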
# Molecular target: Glycogen synthase kinase-3 beta (Homo sapiens) (UniProt P49841)
# Experiment: GSK3beta kinase inhibition, dose response, selectivity assay for CDK5 tau phosphorylation inhibitor project, biochemical, ADP-Glo luminescence, GST-GSK3beta, dry powder (AID 602272)
# Conditions: recombinant GST-GSK3beta, 60 min
# Sequence of Glycogen synthase kinase-3 beta (Homo sapiens) (P49841 whole entry, looked up): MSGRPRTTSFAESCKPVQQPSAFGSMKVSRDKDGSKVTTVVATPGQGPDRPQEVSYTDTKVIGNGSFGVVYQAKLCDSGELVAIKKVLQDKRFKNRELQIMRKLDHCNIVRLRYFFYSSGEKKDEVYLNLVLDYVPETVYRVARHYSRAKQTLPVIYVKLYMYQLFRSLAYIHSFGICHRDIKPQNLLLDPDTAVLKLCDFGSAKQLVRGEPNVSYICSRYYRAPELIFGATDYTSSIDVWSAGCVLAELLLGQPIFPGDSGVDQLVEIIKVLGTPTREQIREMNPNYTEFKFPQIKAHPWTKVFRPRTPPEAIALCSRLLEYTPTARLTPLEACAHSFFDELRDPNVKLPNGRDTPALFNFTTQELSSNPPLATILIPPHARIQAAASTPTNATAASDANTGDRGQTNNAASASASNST
row,Compound,AC50 [µM]
1,CC(C)(C)n1c(NC(=O)c2cccc(S(C)(=O)=O)c2)nc2ccccc21,18.9

# Same assay, conditions: recombinant GST-GSK3beta, 60 min, at 30 µM (top of the series)
row,Compound,"activity change, negative = inhibition"
1,CCCn1c(NC(=O)c2cccc(S(=O)(=O)N(CC)CC)c2)nc2ccccc21,inactive
2,Cc1ccnc(N2CCN(C(=O)c3ccc(Cl)cc3)CC2)c1,inactive
3,O=C(C1CCCCC1)N1CCN(c2ccccn2)CC1,inactive
4,COc1cccnc1N1CCN(C(=O)c2ccc(Cl)cc2)CC1,inactive
5,COc1ccnc(N2CCN(C(=O)c3ccc(Cl)cc3)CC2)c1,inactive
6,CCCn1c(NC(=O)c2ccc(Cl)c(S(=O)(=O)N3CCCC3)c2)nc2ccccc21,inactive
7,CCCn1c(NC(=O)c2cccc(S(=O)(=O)N(C)C)c2)nc2ccccc21,inactive
8,CC(C)C(=O)N1CCN(c2ccccn2)CC1,inactive
9,COc1cccc(C(=O)N2CCN(c3ccccn3)CC2)c1,inactive
10,CCOc1cc(C(=O)N2CCN(c3ccccn3)CC2)cc(OCC)c1OCC,inactive
11,Cc1cccc(N2CCN(C(=O)c3ccc(Cl)cc3)CC2)n1,inactive
12,N#Cc1cccnc1N1CCN(C(=O)c2ccc(Cl)cc2)CC1,inactive
13,O=C(c1cccc(Cl)c1)N1CCN(c2ccccn2)CC1,inactive
14,COCCC(=O)N1CCN(c2ccccn2)CC1,inactive
15,N#Cc1ccc(C(=O)N2CCN(c3ccccn3)CC2)cc1,inactive
16,N#Cc1ccc(N2CCN(C(=O)c3ccc(Cl)cc3)CC2)nc1,inactive
17,c1ccc(N2CCNCC2)nc1,inactive

row,Compound,"activity change, negative = inhibition"
1,CCn1c(NC(=O)c2cccc(S(=O)(=O)NC)c2)nc2ccccc21,inactive
2,O=C(c1ccc(Cl)cc1)N1CCN(c2ccc(C(F)(F)F)cn2)CC1,inactive
3,O=C(c1ccc(Cl)cc1)N1CCN(c2ncccc2C(F)(F)F)CC1,inactive
4,O=C(c1ccccc1)N1CCN(c2ccccn2)CC1,inactive
5,O=C(c1ccc(F)cc1)N1CCN(c2ccccn2)CC1,inactive
6,O=C(c1ccc(Cl)cc1)N1CCN(c2ccccn2)CC1,inactive
7,CCCCC(=O)N1CCN(c2ccccn2)CC1,inactive
8,COc1cc(C(=O)N2CCN(c3ccccc3)CC2)cc(OC)c1OC,inactive
9,O=C(c1ccccc1Cl)N1CCN(c2ccccn2)CC1,inactive
10,O=C(c1ccc(Cl)cc1)N1CCN(c2cccc(C(F)(F)F)n2)CC1,inactive
11,COc1ccc(C(=O)N2CCN(c3ccccn3)CC2)cc1,inactive
12,Cc1ccc(C(=O)N2CCN(c3ccccn3)CC2)cc1,inactive
13,COc1cc(C(=O)N2CCN(c3ccccn3)CC2)cc(OC)c1OC,inactive
14,Cc1ccc(N2CCN(C(=O)c3ccc(Cl)cc3)CC2)nc1,inactive
15,CCCn1c(NC(=O)c2cccc(S(=O)(=O)N3CCCCC3)c2)nc2ccccc21,inactive
16,CCCn1c(NC(=O)c2ccc(OC)c(S(=O)(=O)N3CCCC3)c2)nc2ccccc21,inactive
